Experimental data as given in patent US8106055B2, “Substituted amide compounds” (Gruenenthal GmbH, priority 2007, dated 2012).

Tests used:
[1] = target: T1, human μ opiate receptor (Homo sapiens, UniProt P35372); assay: Affinity for the human μ opiate receptor ([3H]-naloxone displacement, CHO-K1 receptor membrane preparation, SPA); assay type: binding; conditions: test concentration of 1 μM
T1 construct: purchased PerkinElmer Life Sciences, Zaventem, Belgium RB-HOM; host or cells: CHO-K1 cells (membrane preparation)
Summary of the method: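 Test compounds, 1 nmol/l [3H]-naloxone and CHO-K1 membranes bearing the human μ opiate receptor are combined with WGA-SPA beads. After 90 minutes at room temperature, plates are centrifuged and radioactivity counted. Specific-binding inhibition at 1 μmol/l is given in percent.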

[2] = target: T2, bradykinin 1 receptor (B1R) of the rat (Rattus norvegicus, UniProt P97583); assay: Functional investigation on the rat bradykinin 1 receptor (B1R), Ca2+ FLIPR assay in CHO K1 rB1R cells; assay type: cell-based; conditions: B1R antagonism rat; test substance 10 μM; Ca2+ FLIPR, CHO K1 rB1R cells
T2 construct: expressed in transfected cells; host or cells: CHO K1 cells
T2 sequence (P97583 1-337): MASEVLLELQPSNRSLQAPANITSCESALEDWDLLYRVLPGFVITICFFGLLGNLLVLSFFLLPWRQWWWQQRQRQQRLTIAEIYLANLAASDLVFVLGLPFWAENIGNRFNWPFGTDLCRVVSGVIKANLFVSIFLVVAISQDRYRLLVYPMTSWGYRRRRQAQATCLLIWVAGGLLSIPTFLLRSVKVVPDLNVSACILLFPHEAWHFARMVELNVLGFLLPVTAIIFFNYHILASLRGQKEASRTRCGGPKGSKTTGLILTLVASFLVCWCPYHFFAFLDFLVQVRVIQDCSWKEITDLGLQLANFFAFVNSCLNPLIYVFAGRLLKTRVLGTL
Summary of the method: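 Fluo-4 Ca2+ readout, peak fluorescence. Stable CHO K1 transfectants; compound pre-incubated 10-20 min, then EC80 agonist—Lys-Des-Arg9-BK for hB1R, Des-Arg9-BK for rB1R. % inhibition vs maximal inhibition; IC50 from multiple concentrations, duplicate/triplicate, ≥2 independent runs.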

T1 sequence (P35372 whole entry): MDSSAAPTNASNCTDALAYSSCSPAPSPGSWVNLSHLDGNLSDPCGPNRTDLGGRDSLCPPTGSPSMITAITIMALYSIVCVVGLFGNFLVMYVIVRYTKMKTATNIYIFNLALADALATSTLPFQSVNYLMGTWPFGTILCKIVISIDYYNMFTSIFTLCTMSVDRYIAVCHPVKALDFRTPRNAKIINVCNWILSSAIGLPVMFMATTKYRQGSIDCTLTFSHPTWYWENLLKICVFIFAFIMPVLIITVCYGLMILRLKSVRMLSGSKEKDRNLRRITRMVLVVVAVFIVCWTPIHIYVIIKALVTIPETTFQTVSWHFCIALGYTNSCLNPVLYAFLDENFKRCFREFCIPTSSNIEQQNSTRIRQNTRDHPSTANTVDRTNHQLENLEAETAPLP

Row | SMILES | μ (binding on the μ opioid receptor, % inhibition) [1] | B1R Ant. r [10 μM] % Inhibition [2]
1 | CN(C)C(c1ccc(F)cc1)C1CCC(NC(=O)COCC2CCCN2S(=O)(=O)c2ccc(Cl)c(Cl)c2)CC1 (stereo not shown) [Example 344] | 64% | 12%
2 | COc1ccc(S(=O)(=O)N2CCCCC2COCC(=O)NCC2CCC(C(c3cccc(F)c3)N(C)C)CC2)cc1OC (stereo not shown) [Example 329] | 66% | 9%
3 | COc1ccc(S(=O)(=O)N2CCCCC2COCC(=O)NCCC2CCC(C(c3ccc(F)cc3)N(C)C)CC2)cc1 (stereo not shown) [Example 349] | 66% | 77%
4 | Cc1cc(C)c(S(=O)(=O)N2CCC(OCC(=O)NC3CCC(C(c4ccc(F)cc4)N(C)C)CC3)C2)c(C)c1 (stereo not shown) [Example 332] | 58% | 32%
5 | CN(C)C(c1ccccc1)C1CCC(CNC(=O)COC2CCN(S(=O)(=O)c3ccccc3)CC2)CC1 (stereo not shown) [Example 300] | 66% | 7%
6 | COc1ccc(S(=O)(=O)N2CCCCC2COCC(=O)NC2CCC(C(c3cccc(F)c3)N(C)C)CC2)cc1OC (stereo not shown) [Example 352] | 65% | −13%
7 | COc1cc(C)c(S(=O)(=O)N(C)CCOCC(=O)NCC2CCC(C(c3ccc(Cl)cc3)N(C)C)CC2)c(C)c1 (stereo not shown) [Example 348] | 61% | 99%
8 | COc1cc(C)c(S(=O)(=O)N2CCC(OCC(=O)NCC3CCC(C(c4cccc(F)c4)N(C)C)CC3)CC2)c(C)c1C (stereo not shown) [Example 287] | 71% | −1%
9 | CN(C)C(c1ccc(Cl)cc1)C1CCC(CNC(=O)COCCN(Cc2ccccc2)S(=O)(=O)c2ccccc2)CC1 (stereo not shown) [Example 343] | 62% | −15%
10 | CN(C)C(c1cccs1)C1CCC(NC(=O)COCCN2CCN(S(=O)(=O)c3ccccc3)CC2)CC1 (stereo not shown) [Example 341] | 64% | 18%
11 | COc1cc(C)c(S(=O)(=O)N(C)CCOCC(=O)NCCC2CCC(C(c3ccc(Cl)cc3)N(C)C)CC2)c(C)c1C (stereo not shown) [Example 317] | 62% | 18%
